Values after ≈ are worked out from the molar mass of the structure shown. “Also recorded” adds a separate entry of the source. Read-outs that look alike come from different tables or passages of the source.
How the values were obtained:
ATP7A = molecular target: T1, ATP7A (Mus musculus, UniProt Q64430); experiment: Cu+2-stimulated ATP7A trafficking, co-localization assay; format: cell-based; settings: B16F10 cells
T1 construct: endogenous in cells; host or cells: B16F10 mouse melanoma cells
T1 sequence (Q64430 1-1491): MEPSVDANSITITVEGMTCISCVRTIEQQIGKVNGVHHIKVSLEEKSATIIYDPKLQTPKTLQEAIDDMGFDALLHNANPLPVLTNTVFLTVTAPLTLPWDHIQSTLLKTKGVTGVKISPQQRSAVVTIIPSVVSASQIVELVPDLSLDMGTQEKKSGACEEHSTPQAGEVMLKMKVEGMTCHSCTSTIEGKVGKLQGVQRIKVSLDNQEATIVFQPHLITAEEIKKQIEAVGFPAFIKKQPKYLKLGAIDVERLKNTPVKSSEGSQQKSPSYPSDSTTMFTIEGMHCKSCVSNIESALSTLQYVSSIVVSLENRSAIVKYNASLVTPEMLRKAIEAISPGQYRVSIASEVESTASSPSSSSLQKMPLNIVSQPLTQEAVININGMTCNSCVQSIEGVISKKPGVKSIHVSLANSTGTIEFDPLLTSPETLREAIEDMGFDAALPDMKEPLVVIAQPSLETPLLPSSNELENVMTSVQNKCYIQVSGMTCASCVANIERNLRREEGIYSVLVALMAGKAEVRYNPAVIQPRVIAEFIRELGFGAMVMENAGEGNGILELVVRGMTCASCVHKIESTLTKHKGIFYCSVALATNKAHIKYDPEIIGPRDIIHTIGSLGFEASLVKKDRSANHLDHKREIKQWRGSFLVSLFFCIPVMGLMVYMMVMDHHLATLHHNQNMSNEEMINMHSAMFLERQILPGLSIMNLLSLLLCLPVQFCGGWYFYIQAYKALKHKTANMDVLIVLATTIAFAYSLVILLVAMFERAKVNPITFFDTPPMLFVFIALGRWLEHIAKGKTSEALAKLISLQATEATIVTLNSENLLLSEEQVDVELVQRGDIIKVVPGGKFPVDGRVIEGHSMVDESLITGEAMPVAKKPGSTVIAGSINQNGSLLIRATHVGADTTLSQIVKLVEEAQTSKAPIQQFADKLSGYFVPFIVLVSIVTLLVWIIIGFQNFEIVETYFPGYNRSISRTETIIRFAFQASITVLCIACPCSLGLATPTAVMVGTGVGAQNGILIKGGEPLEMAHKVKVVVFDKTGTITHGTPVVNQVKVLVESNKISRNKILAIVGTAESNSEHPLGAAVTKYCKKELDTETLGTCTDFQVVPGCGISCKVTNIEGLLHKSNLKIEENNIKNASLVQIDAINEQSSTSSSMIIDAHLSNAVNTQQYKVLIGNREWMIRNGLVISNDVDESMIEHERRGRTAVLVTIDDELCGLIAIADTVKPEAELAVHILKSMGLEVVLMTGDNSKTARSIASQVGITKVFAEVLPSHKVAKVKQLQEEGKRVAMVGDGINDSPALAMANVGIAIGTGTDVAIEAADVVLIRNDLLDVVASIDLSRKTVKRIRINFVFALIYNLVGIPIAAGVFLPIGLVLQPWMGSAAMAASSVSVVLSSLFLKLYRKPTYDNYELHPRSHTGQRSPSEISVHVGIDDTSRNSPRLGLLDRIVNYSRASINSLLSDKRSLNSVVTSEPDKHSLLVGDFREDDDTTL
Description: Cells were incubated for 16 hours with […] omeprazole or the vehicle (DMSO) and then treated with Cu+2, or not treated, to determine if omeprazole could inhibit Cu+2-stimulated (CuCl2) ATP7A trafficking. […] ATP7A is seen as green following immunofluorescence protocols previously described (Petris et al., 1999), the Golgi stained red, and the nucleus stained blue. […]
This is consistent with the idea that omeprazole is metabolized to generate an inhibitory metabolite (such as hydroxy-omeprazole or perhaps the sulfonated metabolite) which then interacts with newly synthesized tyrosinase. This finding also is consistent with the hypothesis that omeprazole inhibits metallation of newly synthesized tyrosinase via ATP7A, rather than functioning as a direct inhibitor of tyrosinase per se; that is, a 72 hour incubation in omeprazole appears to be required so that preexisting tyrosinase can be turned over, allowing the inhibitory effect of omeprazole to be detected on newly synthesized tyrosinase.

melanocytes = experiment: Inhibition of melanogenesis / pigment development in cultured melanocytes; format: cell-based
[1] = test system: normal human epidermal melanocytes; experiment: Melanogenesis and melanin content in normal human epidermal melanocytes; format: cell-based
Source text: (§1) PPIs had been known to function in the parietal cells to block the production of stomach acid by binding to at least one cysteine residue of the gastric proton pump, ATP4A, to thus effect long-lasting, semi-irreversible inactivation of the ATP4A. In order to bind to the ATPase, the PPI must be in its active form, and the PPI requires an acidic environment to undergo rearrangement to its active form.

[2] = test system: reconstructed human skin model; experiment: Reconstructed human skin model; format: cell-based
Source text: as §1

[3] = pH below 0.8; cited from earlier work
[4] = test system: tyrosinase, MITF, TRP-2, Pme117 mRNA; experiment: mRNA levels of melanogenesis related proteins by RT-PCR in B16F10 mouse melanoma cells; format: cell-based
Source text: The inventors next examined the effect of omeprazole on tyrosinase, the principal, rate-limiting enzyme in melanin synthesis.

Compound | inhibition of Cu+2-stimulated ATP7A re-localization (ATP7A; 100 μM for 16 hours, then 10 μM Cu+2 for 3 hours) | ATP7A trafficking without Cu+2 stimulation (ATP7A; SCH-28080, absence of Cu+2) | inhibition of melanogenesis (melanocytes) | inhibition of melanogenesis (melanocytes; listed as SCH-20808) | cytotoxicity [1] | EC50 ([1]; Melanocyte, read-out: EC50 of melanogenesis inhibition) | concentration at which effective [2] | concentration that inhibits melanogenesis (melanocytes; cultured melanocytes) | reorganization (stability) [3] | tyrosinase mRNA levels [4]
Cc1nc2c(OCc3ccccc3)cccn2c1CC#N [SCH-28080] | inhibition; also recorded: very potent inhibitor | no effect on ATP7A trafficking | also inhibited melanogenesis | strongly inhibited melanogenesis | – | – | – | – | – | –
COc1ccc2[nH]c([S+]([O-])Cc3ncc(C)c(OC)c3C)nc2c1 (centres unmarked) [omeprazole, 5- or 6-methoxy-2-{[(4-methoxy-3,5-dimethylpyridin-2-yl)methyl]sulfinyl}-1H-benzimidazole] | – | – | – | – | low cytotoxicity | 15 µg/mL (≈ 43.4 µM) | 50 µg/mL | 5 to 50 µg/mL | quickly reorganizes into the sulfonamide analog | no effect
C[C@@H]1O[C@@H](O[C@H]2C[C@@H](O)[C@]3(CO)[C@H]4[C@H](O)C[C@]5(C)[C@@H](C6=CC(=O)OC6)CC[C@]5(O)[C@@H]4CC[C@]3(O)C2)[C@H](O)[C@H](O)[C@H]1O [ouabain] | – | – | does not inhibit melanogenesis | – | – | – | – | – | – | –

— patent publication US20140163073A1, “Small Molecule Inhibitors of P-type ATPases” (priority 2012, published 2014)
